Measurements reported in ChEMBL document CHEMBL3430912, “GSK Tres Cantos Anti-Kinetoplastid Screening (TCAKS) Data”.

Experiments:
[1] = test system: Trypanosoma brucei brucei; test: GSK_TCAKS: pIC50 Trypanosoma brucei viability assay using luminiscence. Assay plates (1536-well) were prepared. T. brucei cultures were harvested and counted in a CASY cell counter. A parasite suspension was prepared at a final concentration of 5 * 10^4 cells/mL in complete HMI9 medium and 6uL was dispensed to all wells containing compounds using a Multidrop Combi dispenser. 6uL of HMI9 media with 0.4% DMSO were dispensed to control columns. Plates were incubated for 24 h at 37C, 5% CO2 then tempered for 10 min at room temperature. ATP content was quantified by adding 4 uL of CellTiter-Glo Reagent (Promega) according to the manufacturer's instructions. Luminescence was measured using a ViewLux.; type: functional, organism-based; settings: Lister 427, CASY
Trypanosoma cruzi [2] = test: (§1) GSK_TCAKS: pIC50 Trypanosoma cruzi Imaging: Infected Cells. […] Cells were then washed once with PBS before infection. T. cruzi trypomastigotes, collected at days 5 to 8 after infection from LLC-MK2 parasite infected cultures, were allowed to swim out for 4h at 37C from a centrifuged pellet (2,500 rpm/10 min/room temperature). Trypomastigotes were then collected and counted in a CASY Cell Counter. Trypomastigotes, in supplemented DMEM, were added to H9c2 cultures in a multiplicity of infection of 1 and incubated for 18 h. Cells were washed once with PBS before incubation of the infected H9c2 monolayer with trypsin (Life-Technologies) to detach cells from the flask. Cells were counted in a CASY Cell Counter using a 150 um capillary and their density set at 5 * 10^4 cells per mL in supplemented assay DMEM. Infected H9c2 were dispensed into 384-well poly-lysine coated assay plates at 50uL per well using a Multidrop Combi dispenser. After seeding them, the plates were incubated at 37C, 5% CO2 for 72h. Cultures were then fixed and stained by addition of 50 uL of a solution containing 8% formaldehyde and 4 uM DRAQ5 DNA dye (BioStatus, UK) per well. […] Five images were collected per well for reliable statistical analysis. Automated image analysis was performed with a script developed on Acapella High Content Imaging and Analysis Software (PerkinElmer). Output: percentage of infected cells per well as a second infection marker.; type: functional, organism-based, Rattus norvegicus; settings: H9c2, 4 h
Leishmania donovani [3] = test: GSK_TCAKS: pIC50 Leishmania donovani viability assay using fluorescence intensity. Assay plates (1536-well) were prepared by adding 30nL per well of compound. For single shot assay, the final compound concentration was 5uM. […] Briefly, eGFP LdBOB axenic amastigotes were harvested, fixed and counted in a CASY cell counter (Roche-Applied Science). A final concentration of 1.5 * 10^5 cells per well were prepared in amastigote media containing 500 U/mL penicillin/streptomycin (Invitrogen) and 6uL was dispensed to each experimental well using a Multidrop Combi dispenser (Thermo Scientific). 6uL of assay media was dispensed to control columns used as reference for 100% compound response. Following incubation for 72 h at 37C, 5% CO2, 2 uL of resazurin was added to each well at a final concentration of 0.5 mM in phosphate buffered saline (PBS) with IGEPAL (Sigma-Aldrich), 0.05% (v/v).; type: functional, organism-based
Trypanosoma cruzi [4] = test: as §1, with “H2C9” for “Trypanosoma cruzi”, “H9c2 Host Cardiomyocytes.” for “Infected Cells.”, “Number” for “percentage”, “H9c2 Host Cardiomyocytes nuclei to determine drug-related cytotoxicity.” for “infected cells per well as a second infection marker.”; type: functional, organism-based, Rattus norvegicus; settings: H9c2, 4 h
Trypanosoma cruzi [5] = test: GSK_TCAKS: pIC50 Trypanosoma cruzi viability assay using beta-GAL activity. This assay was run at single shot at 5uM compound concentration per well. The biological reagents consisted of NIH-3T3 host cells and trypomastigotes parasitic cells; both cell types were set to a 3.3 * 10^5 cells/mL dilution in assay DMEM by means of a CASY cell counter device using a 60um capillary. 6 uL of the mixture were dispensed per well (about 1 * 10^3 host-cells and 1 * 10^3 parasites) with a Multidrop Combi dispenser. […] In all wells, the percentage of DMSO never exceeded 0.5%. Plates incubated for four days at 37C, 5% CO2. The substrate used for the assay fluorescence intensity (FLINT) readout was resorufin-beta-D-galactopiranoside (Sigma-Aldrich) at 5uM per well. It was diluted in PBS supplemented with the soft detergent Igepal (Fluka).; type: functional, organism-based, Mus musculus; settings: Tulahuen, NIH3T3
Leishmania donovani [6] = test: GSK_TCAKS: pIC50 Leishmania donovani Imaging: Infected Macrophages. Assay plates (384-well) were prepared by adding 250nL of compound to each well. For single shot assay, the final compound concentration was 5 uM. […] Automated image analysis was performed with a script developed on Acapella High Content Imaging and Analysis Software (PerkinElmer). Output: Percent of infected macrophage cells were reported for each well.; type: functional, organism-based, Homo sapiens; settings: THP-1
[7] = test system: Trypanosoma brucei brucei; test: GSK_TCAKS: pIC50 Trypanosoma brucei viability assay using fluorescence intensity. Assay plates (1536-well) were prepared by dispensing 25nL of compound solution per well using an Echo acoustic dispenser (Labcyte).; type: functional, organism-based; settings: Lister 427, 2 h
NIH3T3 = test: GSK_TCAKS: pIC50 NIH 3T3 cell line viability assay using luminiscence. Tissue culture surface treated assay plates (1536-well) were used. […] The 100% cells survival control was determined exposing the host-cells to a 0.5% DMSO concentration, whereas the 100% toxicity control was achieved by seeding the cells in presence of Amphotericin B at 50uM. Plates were incubated for four days at 37C, 5% CO2. The assay readout was developed by addition of 5uL of CellTiter-Glo Reagent following the manufacturer's instructions. Luminiscence was measured using a ViewLux.; type: functional, cell-based; settings: Mus musculus, NIH3T3, 96 h
[8] = GSK_TCAKS: pIC50 HepG2 human cell line viability assay using luminiscence. […] Seeding density was checked to ensure that new mono-layers were not more than 50% confluent at the time of harvesting. Cell suspension was added to 500 mL of the same medium at a final density of 1.2 * 10^5 cells/mL. This cell suspension was dispensed (25 uL, 3000 cells per well) into 384-well clear-bottom plates using a Multidrop Combi dispenser. Prior to addition of the cell suspension, the screening compounds (250 nL) were pre-dispensed into the plates with an Echo liquid handler. Plates were incubated for 48 h at 37C, 5% CO2. After incubation, plates equilibrated at room temperature for 30 min before proceeding to develop the luminescent signal. The signal developer, CellTiter-Glo Reagent, was allowed to equilibrate at room temperature for 30 min and added to the plates (25uL per well) using a Multidrop Combi dispenser. Plates were left for 10 min at room temperature for stabilization and then read using a ViewLux.; type: toxicity, cell-based
Leishmania donovani [9] = test: GSK_TCAKS: pIC50 Leishmania donovani Imaging: Amastigotes/Macrophages. Assay plates (384-well) were prepared by adding 250nL of compound to each well. For single shot assay, the final compound concentration was 5 uM. […] Automated image analysis was performed with a script developed on Acapella High Content Imaging and Analysis Software (PerkinElmer). Output: Average number of amastigotes per macrophage cell were reported for each well.; type: functional, organism-based, Homo sapiens; settings: THP-1
Leishmania donovani [10] = test: GSK_TCAKS: pIC50 Leishmania donovani Imaging: THP-1 Host Macrophages. Assay plates (384-well) were prepared by adding 250nL of compound to each well. For single shot assay, the final compound concentration was 5 uM. […] Automated image analysis was performed with a script developed on Acapella High Content Imaging and Analysis Software (PerkinElmer). Output: THP-1 cell count were reported for each well.; type: functional, organism-based, Homo sapiens
Trypanosoma cruzi [11] = test: GSK_TCAKS: pIC50 Trypanosoma cruzi Imaging: Amastigotes/Cell. […] Cells were then washed once with PBS before infection. T. cruzi trypomastigotes, collected at days 5 to 8 after infection from LLC-MK2 parasite infected cultures, were allowed to swim out for 4h at 37C from a centrifuged pellet (2,500 rpm/10 min/room temperature). Trypomastigotes were then collected and counted in a CASY Cell Counter. Trypomastigotes, in supplemented DMEM, were added to H9c2 cultures in a multiplicity of infection of 1 and incubated for 18 h. Cells were washed once with PBS before incubation of the infected H9c2 monolayer with trypsin (Life-Technologies) to detach cells from the flask. Cells were counted in a CASY Cell Counter using a 150 um capillary and their density set at 5 * 10^4 cells per mL in supplemented assay DMEM. Infected H9c2 were dispensed into 384-well poly-lysine coated assay plates at 50uL per well using a Multidrop Combi dispenser. After seeding them, the plates were incubated at 37C, 5% CO2 for 72h. Cultures were then fixed and stained by addition of 50 uL of a solution containing 8% formaldehyde and 4 uM DRAQ5 DNA dye (BioStatus, UK) per well. […] Five images were collected per well for reliable statistical analysis. Automated image analysis was performed with a script developed on Acapella High Content Imaging and Analysis Software (PerkinElmer). Output: number of amastigotes per cell as infection level measurement.; type: functional, organism-based, Rattus norvegicus; settings: H9c2, 4 h
[12] = biological target: Sterol 14-alpha demethylase (Trypanosoma cruzi (strain CL Brener), UniProt Q7Z1V1); test: GSK_TCAKS: pIC50 CYP51 from Trypanosoma cruzi.; type: functional
Chain of Sterol 14-alpha demethylase (Q7Z1V1 whole entry): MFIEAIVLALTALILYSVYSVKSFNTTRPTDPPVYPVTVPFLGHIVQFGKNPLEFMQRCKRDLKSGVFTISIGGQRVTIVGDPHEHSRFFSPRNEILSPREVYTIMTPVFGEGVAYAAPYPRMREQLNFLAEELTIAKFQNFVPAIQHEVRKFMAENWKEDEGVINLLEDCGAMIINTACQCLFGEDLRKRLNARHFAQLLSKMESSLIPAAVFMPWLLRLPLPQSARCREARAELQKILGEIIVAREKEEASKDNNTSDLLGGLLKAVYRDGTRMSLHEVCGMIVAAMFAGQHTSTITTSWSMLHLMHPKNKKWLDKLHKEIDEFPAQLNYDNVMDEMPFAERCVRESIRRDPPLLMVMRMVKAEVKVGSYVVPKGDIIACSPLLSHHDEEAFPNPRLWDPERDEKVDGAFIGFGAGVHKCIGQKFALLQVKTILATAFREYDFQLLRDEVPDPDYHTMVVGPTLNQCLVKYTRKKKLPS

SMILES | IC50 [1] | IC50 (Trypanosoma cruzi [2]) | IC50 (Leishmania donovani [3]) | IC50 (Trypanosoma cruzi [4]) | IC50 (Trypanosoma cruzi [5]) | IC50 (Leishmania donovani [6]) | IC50 [7] | IC50 (NIH3T3) | IC50 at 48 h [8] | IC50 (Leishmania donovani [9]) | IC50 (Leishmania donovani [10]) | IC50 (Trypanosoma cruzi [11]) | IC50 [12]
N#Cc1nc(C=Cc2ccccc2)oc1NCc1cccnc1 | 31.6 µM | 0.398 µM | 25.1 µM | 15.8 µM | 0.251 µM | 39.8 µM | 15.8 µM | 12.6 µM | > 100 µM | 31.6 µM | 31.6 µM | 0.398 µM | 
CCOc1ccc(NC(=O)C=Cc2ccc(CC)o2)cc1 |  | 25.1 µM | 20 µM | > 50.1 µM | 2 µM | 50.1 µM | 15.8 µM | 31.6 µM | 79.4 µM | 25.1 µM | 20 µM | 15.8 µM | > 100 µM
FC(F)(F)c1cc(C2CCCN(Cc3c[nH]c4ccccc34)C2)nc2ncnn12 (configuration not stated) | > 39.8 µM | 10 µM | > 50.1 µM | > 50.1 µM | 1.58 µM | > 50.1 µM | > 39.8 µM | 20 µM | > 100 µM | > 50.1 µM | 15.8 µM | 6.31 µM | 
COc1cc(NC(=O)Nc2cccc(CNC(=O)OC3CCCCC3)c2)ccc1-c1cnco1 |  | 25.1 µM | > 50.1 µM | 15.8 µM | 1 µM | > 50.1 µM | 0.251 µM | 10 µM | 39.8 µM | 20 µM | 10 µM | 31.6 µM | 25.1 µM
CC(C)Nc1nccc(-c2c(-c3ccc(F)cc3)ncn2C2CCOCC2)n1 |  | 0.316 µM | 25.1 µM | > 50.1 µM | 0.282 µM | 25.1 µM | 5.01 µM | > 50.1 µM | > 100 µM | 15.8 µM | > 50.1 µM | 0.2 µM | > 100 µM
CC(Cn1ccnc1)NC(=O)C=Cc1ccc(Cl)cc1 (configuration not stated) |  | 1 µM | > 50.1 µM | > 50.1 µM | 0.398 µM | > 50.1 µM | > 39.8 µM | > 50.1 µM | > 100 µM | > 50.1 µM | > 50.1 µM | 0.631 µM | 0.158 µM
c1cncc(CN(Cc2ccco2)Cc2c[nH]nc2-c2cccs2)c1 |  | 0.0501 µM | 31.6 µM | > 50.1 µM | 0.02 µM | > 50.1 µM | 25.1 µM | 31.6 µM | > 100 µM | 1.26 µM | 20 µM | 0.0398 µM | 0.0794 µM
CC(C)Oc1ccc(C(=O)Nc2ccc(N3CCOCC3)c(Cl)c2)cc1 |  | 1.26 µM | > 50.1 µM | > 50.1 µM | 1.58 µM | > 50.1 µM | 12.6 µM | 10 µM | 31.6 µM | 3.16 µM | > 50.1 µM | 1.26 µM | > 100 µM
CCCCNc1nccc(-c2c(-c3ccc(F)cc3)nn3c(N4CCOCC4)cccc23)n1 |  | 3.16 µM | > 50.1 µM | > 50.1 µM | 0.398 µM | 6.31 µM | 10 µM | 10 µM | > 100 µM | > 50.1 µM | 12.6 µM | 1 µM | > 100 µM
CN(C)CCOc1ccc(N2CCN(S(=O)(=O)c3ccc(Cl)cc3)CC2)cc1 | 25.1 µM | 0.631 µM | 39.8 µM | > 50.1 µM | 0.631 µM | 31.6 µM | 20 µM | 15.8 µM | 50.1 µM | 31.6 µM | > 50.1 µM | 0.501 µM | 
Nc1ncnc2c1ncn2[C@@H]1O[C@H](CO)C[C@H]1O [CORDYCEPIN] | 0.01 µM | 2 µM | > 50.1 µM |  | 1.12 µM | > 50.1 µM | 0.0126 µM | > 50.1 µM | > 100 µM | > 50.1 µM | > 50.1 µM | 1.26 µM | > 100 µM
